Several values for one entry are separate records, joined by “and”; a condition that tells them apart may be missing. Equal values may be shown once.
Each compound was assayed on P. falciparum 3D7 growth, pLDH absorbance (assay: blood-stage malaria parasite growth potency – strain 3D7, dose response (AID 2305)).

SMILES | IC50
Cc1cc(=O)c(-c2ccc(Oc3ccc(OC(F)(F)F)cc3)cc2)c(C)[nH]1 | 360 nM
Fc1ccc2nc(-c3cccc(-c4ccc(CN5CCN(c6ccncc6)CC5)cc4)c3)[nH]c2c1 | 210 nM
Cc1cc(N[C@@H](CC(C)C)C(=O)NCCOc2ccccc2)nc(NCCOc2ccccc2)n1 | 1490 nM
COc1cc(-c2ccc3c(-c4ccc(C(=O)N5CCN(C)CC5)cc4)[nH]nc3n2)cc(OC)c1OC | 1330 nM
CN(C)C(CNC(=O)c1cc(-c2ccncc2)c(-c2cc3ccccc3[nH]2)o1)c1ccccc1 (configuration not stated) | 840 nM
O=C1C(c2ccccc2)=C(Nc2ccc(Cl)cc2)c2ccccc21 | 610 nM
O=C(NCCN1CCCCC1)c1ccc(CNC(=O)c2ccc(O)c(-c3ccc(Cl)c(Cl)c3)c2)cc1 | 900 nM
c1ccc(Cn2nnnc2-c2cccc(Nc3ccnc4cc(-c5nccs5)ccc34)c2)cc1 | 830 nM
Cc1nnsc1C(=O)Nc1cccc(-c2ccc(-c3nc4c(C)cccc4[nH]3)s2)c1 | 1120 nM
CCCN(CCCN(CCCN(CCC)C(C)C)c1cc(C)nc(Nc2ccc(Cl)cc2)n1)C(C)C | 110 nM
O=C(/C=C/c1cccc(Cl)c1)NCCCCCN1CCC(c2c[nH]c3ccccc23)CC1 | 990 nM
C[C@H](NC(=O)c1c(CN2CCN(C(=O)C(C)(C)C)CC2)c(-c2cccs2)nc2ccccc12)C1CCCCC1 | 1180 nM
O=C(O)c1ccc(-c2cnc3ccc(NC4CCC(O)CC4)nn23)cc1 (configuration not stated) | 1000 nM
C[C@H](NC(=O)[C@H](Cc1ccccc1)NC(=O)OC(C)(C)C)C(=O)N[C@@H](CC1CCCCC1)C(O)CN (some centres not stated) | 730 nM
CC(C)n1ncc2c(C(=O)N3CCCCCC3)cc(-c3ccccc3)nc21 | 790 nM
CN(C)CCc1coc2ccc(C(=O)Nc3ccc(-c4ccc(O)cc4)cc3)cc12 | 1080 nM
Clc1cccc(CNc2nc(NCCc3cnc[nH]3)nc(NC3CCCCC3)n2)c1 | 790 nM
Cc1nc2ccc3ccc(CN(C)c4ccc(C(=O)N[C@@H](CCC(=O)O)C(=O)O)cc4)cc3c2c(=O)[nH]1 | 880 nM
CN(C)S(=O)(=O)n1ccc2c3c(N)nc(N)nc3ccc21 | 50 nM
N#Cc1ccc(NC(=NC2CCN(Cc3ccccc3)CC2)Nc2ccccc2Cl)c(O)c1 | 300 nM
CCc1nc(N)nc(N)c1-c1ccc(Cl)cc1 | 60 nM and 30 nM
CC(C)CCN1CCC(Oc2ccc(NC(=O)c3ccco3)cc2Cl)CC1 | 680 nM
O=C(/C=C/c1ccc(Cl)c(Cl)c1)NC1CCC(N2CCC(c3c[nH]c4ccccc34)CC2)CC1 (configuration not stated) | 880 nM
COC(=O)c1cccc(C#CCCOCCCCCCNC[C@H](O)c2cc(Cl)c(N)c(Cl)c2)c1 | 770 nM
CCC(=Cc1cccc([N+](=O)[O-])c1)C(=O)NCC1CCN(c2nc(N)c3cc(OC)c(OC)cc3n2)CC1 | 240 nM

SMILES | IC50
CCCCOc1ccc(-c2nc3ccccc3[nH]2)cc1 | 870 nM
O=C(CC1CCCC1)N(Cc1ccc(-c2ccc(CNC3Cc4ccccc4C3)cc2)cc1)CC1CCCCN1 (configuration not stated) | 1060 nM
COc1cc(OC)c(NC(=O)Nc2ccnc3ccccc23)cc1Cl | 750 nM
COc1ccc2nccc([C@@H](O)CN3CCC(NC(=O)C(c4cc5ccccc5o4)N4CCN(Cc5ccccc5)CC4)CC3)c2c1 (some centres not stated) | 160 nM
Cc1cccc2[nH]c(-c3ccc(-c4ccc(NC(=O)Nc5ccsc5)cc4)cc3)nc12 | 170 nM
O=C(Nc1ccccc1)N(Cc1cccc(-c2ccc(CNC3CCCC3)cc2)c1)C1CCN(Cc2ccccc2)CC1 | 390 nM
Fc1ccc2nc(-c3ccc(-c4ccc(CNCCc5cccnc5)cc4)s3)[nH]c2c1 | 240 nM
CCN(CC)CCN(CCN(CC)CC)c1ccc(-c2nc3cc(Cl)c(Cl)cc3[nH]2)cc1 | 780 nM
CCCC1N=C(N)N=C(N)N1c1ccc(C)c(C)c1 (configuration not stated) | 70 nM
O=C(NCCCNc1ccc2ccccc2n1)c1cc2c(Cl)cc(Cl)cc2[nH]1 | 600 nM
CN1CCN(c2cc3c(cc2Cl)CCN3C(=O)Cc2ccc(Cl)c(NC(=O)Nc3cccc(C#N)c3)c2)CC1 | 640 nM
O=C(N[C@@H](CC1CCCCC1)C(=O)NCCN1CCCC1)c1ccc(O)c(-c2ccc(Cl)c(Cl)c2)c1 | 310 nM
O=C(/C=C/c1cccc(C(F)(F)F)c1)NCCCCCN1CCC(c2c[nH]c3ccccc23)CC1 | 840 nM
O=C(Nc1ccc(Cl)cc1)Nc1ccc(-c2ccc(-c3nc4ccccc4[nH]3)cc2)cc1 | 50 nM
CCNc1cc(C(=O)N[C@@H](Cc2ccccc2)[C@H](O)CNC2CCC(C)(C)C2)cc(N2CCCCS2(=O)=O)c1 (some centres not stated) | 140 nM
COc1cc(Cc2cnc(N)nc2N)cc(OCCCCC#N)c1OC | 1040 nM
CC(C)C[C@H](Nc1ccc(C#N)c2ccccc12)C(=O)NC(C)(C)C12CC3CC(CC(C3)C1)C2 | 920 nM
CNCC(O)c1cc(Cl)c(Cl)cc1C (configuration not stated) | 920 nM
Cc1[nH]c(C)c(-c2ccc(Oc3ccc(Cl)cc3)cc2)c(=O)c1C | 390 nM
CCN(CC)CCN(Cc1ccc(-c2ccc(C(F)(F)F)cc2)cc1)C(=O)Cn1c(CCc2cccc(F)c2F)nc(=O)c2cc(C)ccc21 | 940 nM
CCCc1cc(=O)[nH]c(-n2nc(C)cc2NC(=O)C(CC)c2ccccc2)n1 (configuration not stated) | 940 nM
Cc1c(-c2cccc(CNCCc3ccc(Cl)cc3)c2)cnc(N)c1C | 1040 nM
CCCOc1cc(O)c(-c2n[nH]c(C)c2Oc2ccccc2)cc1CC | 1070 nM
O=C(NOCCCCOc1ccc(Cl)c(Cl)c1)c1ccccc1 | 180 nM
CCc1c[nH]c2c(N3CCCS3(=O)=O)cc(C(=O)N[C@@H](Cc3ccccc3)[C@H](O)CNC(C)(C)c3cccc(C(F)(F)F)c3)cc12 | 230 nM

SMILES | IC50
O=C(N[C@@H](Cc1ccccc1)C(=O)NCCN1CCOCC1)c1ccc(O)c(-c2ccc(Cl)c(Cl)c2)c1 | 920 nM
COc1cccc(-c2cnc(N)c(-c3nc4ccc(C(F)(F)F)cc4[nH]3)c2)c1 | 650 nM
O=C(CCCCCNC(=O)c1ccc(O)c(-c2ccc(Cl)c(Cl)c2)c1)NCCN1CCCCC1 | 890 nM
O=C(/C=C/c1ccc(Cl)c(Cl)c1)Nc1cccc(CN2CCC(c3c[nH]c4ccccc34)CC2)c1 | 670 nM
COc1ccc(C(=O)CCC(=O)N(Cc2ccc(-c3ccc(CNCCc4ccc(S(C)(=O)=O)cc4)cn3)cc2)C(C)CN(C)C)cc1F (configuration not stated) | 650 nM
Cc1nccn1CCNC(=O)CN1CCC2(CCC1=O)CC(=O)c1ccccc1O2 (configuration not stated) | 800 nM
CC(C)c1cc2c(cc1O)C(Cc1ccccc1Cl)N(C)CC2 (configuration not stated) | 730 nM
O=C(Nc1ccc(CN2CCC(c3c[nH]c4ccc(O)cc34)CC2)cc1)c1ccc(-c2ccccc2)cc1 | 250 nM
CCc1cc(OC)ccc1C1CCN(CCCCNC(=O)c2ccc(NC(=O)c3ccc(Cl)cc3)cc2)CC1 | 1070 nM
Clc1ccc(Nc2nc(Nc3ccc(Cl)c(Cl)c3)nc(Sc3nc4ccccc4[nH]3)n2)cc1Cl | 490 nM
Cc1nn(-c2ccccc2)c2c1C(c1ccc(C(C)C)cc1)N1C(=N2)N(Cc2ccccc2)c2ccccc21 (configuration not stated) | 780 nM
CCc1cn(CCOC)c2ccc(C(=O)N[C@@H](Cc3ccccc3)[C@H](O)CNC(C)(C)CCCC(C)C)cc12 | 570 nM
O=C(O)c1ccc(OCOCOc2ccc(C(=O)O)c(O)c2)cc1O | 190 nM
O=C(/C=C/c1ccc(-c2ccccc2)cc1)NCCCCCN1CCC(c2c[nH]c3ccccc23)CC1 | 850 nM
O=C(Nc1ccc(Cl)c(Cl)c1)N1CCc2cc3nccc(N4CCN5CCC[C@H]5C4)c3cc21 | 630 nM
Cc1cc2cc(/C=C/C(=O)NC3CCC(CCN4CCc5ccc(C#N)cc5CC4)CC3)ccc2[nH]1 (configuration not stated) | 880 nM
Cc1ccc(CNC(=O)[C@H](CC(C)C)Nc2cc(C)nc(NCc3ccccc3C)n2)cc1 | 950 nM
Cc1ccc(NC(=O)N2CCCN(CCCCCNC(=O)/C=C/c3ccc(Cl)c(Cl)c3)CC2)cc1C | 770 nM
CCCCC(NCC)c1ccc(OCCOc2ccc(C(CCCC)NCC)cc2)cc1 (configuration not stated) | 930 nM
CCOC(=O)c1c(CNc2ccncc2)n(C)c2cc(Br)c(OC(C)=O)cc12 | 370 nM
CN1CCCN(c2ccnc3cc4c(cc23)N(C(=O)c2ccc(Cl)c(Cl)c2)CC4)CC1 | 870 nM
Cn1c2c(c3ccccc31)CN(CCC1(c3ccc(Cl)c(Cl)c3)CN(C(=O)c3ccccc3)CCO1)CC2 (configuration not stated) | 310 nM
OC1(C(F)(F)F)CC(c2ccccc2)=NN1c1nncc(-c2ccccc2)n1 (configuration not stated) | 730 nM
O=C(Nc1cccc(F)c1)NC1CCN(c2ccnc3cc(Cl)ccc23)C1 (configuration not stated) | 190 nM
CC(C)(C)CNc1noc(-c2sccc2Br)n1 | 1120 nM

SMILES | IC50
COc1ccc(N2CCN(c3nc(Nc4ccc(NC(C)=O)cc4)nc(N4CCCC4)n3)CC2)cc1 | 980 nM
Nc1cc(-c2ccc(-c3cccs3)s2)nc2ccccc12 | 600 nM
O=C(O)c1cc(C(F)(F)F)co1 | 830 nM
CCCOc1ccc(N2C(N)=NC(N)=NC2(C)C)cc1 | 490 nM
COc1cc(-c2nnc(SCC(=O)Nc3cc(C)on3)n2C)cc(OC)c1O | 180 nM
O=C(Nc1cc(Cl)cc(Cl)c1)Nc1ccccc1C(=O)NC1CCCCC1 | 750 nM
O=C(/C=C/c1ccc(Cl)c(Cl)c1)NCCCCCN1CCN(C(=O)Nc2cccc(F)c2)CC1 | 870 nM
O=C(CN1CCN(C(=O)c2ccco2)CC1)Nc1ccccc1Br | 560 nM
Nc1ccc2c(N)c3ccccc3nc2c1 | 810 nM
Cc1cc(N[C@@H](Cc2ccccc2)C(=O)NCCCOC(C)C)nc(NCC2CCCCC2)n1 | 880 nM
O=C(Nc1cccc(-c2ccc(-c3nc4ccc(C(F)(F)F)cc4[nH]3)s2)c1)c1cccnc1 | 360 nM
Cc1cc(F)ccc1Nc1nc(N(C)c2ccccc2)c2cccc(O)c2n1 | 960 nM
c1ccc(CN2CCC(NCc3ccc(-c4ccc(CNCc5cccnc5)cn4)cc3)CC2)cc1 | 880 nM
O=C(Nc1ccc(N2CCCN(Cc3cccc(F)c3)CC2)cc1)c1ccc(F)cc1 | 840 nM
CCC(C)CN1CCN(c2ccc(NC(=O)c3cccs3)cc2)C(C)C1 (configuration not stated) | 540 nM
O=C(Nc1ccc(C(F)(F)F)cc1)NC1CCN(c2ccnc3cc(Cl)ccc23)C1 (configuration not stated) | 140 nM
COc1cc2nc(N3CCC(CNC(=O)c4ccc(-c5ccc(-c6noc(C)n6)cc5C)cc4)CC3)nc(N)c2cc1OC | 220 nM
Cc1ccc(/C=C/C(=O)NCCCCCN2CCC(c3c[nH]c4ccccc34)CC2)cc1 | 1010 nM
N#Cc1cccc(NC(=O)NC2CCN(CCCCCNC(=O)/C=C/c3ccc(Cl)c(Cl)c3)CC2)c1 | 710 nM
Cc1cc(N[C@@H](CC(C)C)C(=O)NCCc2ccccc2)nc(Nc2ccccc2)n1 | 820 nM
CCOc1ccc2nc(NC(=O)c3csnn3)sc2c1 | 480 nM
CCCCCCC1(C)N=C(N)N=C(N)C1c1ccc(Cl)c(Cl)c1 (configuration not stated) | 130 nM
